How the values were obtained:
[1] = Pharmacokinetic data in rat after single oral administration; assay type: in vivo; conditions: analyte = the administered compound itself, single oral dose (No. 12 31.2, No. 43 32.8, No. 446 34.8, No. 449 25, XIII 21.2, No. 54 27 mg/kg), fasted female Sprague Dawley rat
Experimental: The objective of the study was to evaluate pharmacokinetic exposure of Compound XI along with Compound No. 12/Compound No. 43/Compound No. 446/Compound No. 449/Compound XIII/Compound No. 54 after per oral dosing at 31.2 mg/kg of Compound No. 12, 32.8 mg/kg of Compound No. 43, 34.8 mg/kg of Compound No. 446, 25 mg/kg of Compound No. 449, 21.2 mg/kg of Compound XIII and 27 mg/kg of Compound No. 54 in female Sprague Dawley rat. This study was performed in overnight fasted female Sprague Dawley rat. Dose formulation was prepared freshly on the day of dosing. 0.1% tween-80+99.9% of 0.5% CMC was used as vehicle for the preparation of dose formulation.
Blood samples were collected through retro orbital plexus puncture at pre-dose, 0.25, 0.5, 1, 2, 4, 8, 12 and 24 h post-dose. At each time point, blood was withdrawn and transferred into a pre-labeled of micro centrifuge tubes containing anti-coagulant. Tube was mixed gently by inverting the tube to facilitate mixing of anticoagulant with the blood. All blood/plasma samples were analysed using fit-for purpose LC-MS/MS method.
The pharmacokinetic parameters were calculated using standard non-compartmental analysis (Phoenix® software, version 8.3, Pharsight Corporation, Mountain View, California 94040/USA) using linear trapezoidal method with linear interpolation.

P2RX3 gene = assay: Gene expression analysis (qRT-PCR) of P2RX3 in cyclophosphamide-treated RT4 cells; assay type: cell-based, Human; conditions: 100 μM CYP + 10 μM compound, 4 h incubation, compared to CYP control
Experimental: Study Design: With objective of evaluating effect of text compounds on the pain related markers we have utilized human urothelial “RT4 (Human Urinary bladder carcinoma cells)” cells, treated with test compounds in combination with cyclophosphamide (CYP) and performed gene expression analysis of pain related gene. For gene expression study, 0.5×10^6 cells were treated with cyclophosphamide and test compounds. Cells were incubated for 4 h at 37° C. Experimental Groups: Groups 1: Untreated cells, Group 2: CYP treated (100 μM CYP), Group 3: CYP+Compound IX (100 μM CYP+10 μM Compound IX).
At the end of 4 hr incubation, medium was removed from all wells and cells were washed once with sterile PBS. RNA isolation was performed as per the manufacturer's instruction utilizing Qiagen RNA mini kit (Cat #74104). Followed by cDNA synthesis using 3 μg of total RNA each sample utilizing Superscript III First strand cDNA synthesis system (Thermo fisher, Cat No 18080051). qRT-PCR was performed using the SYBR green master mix (PCR Biosystems, Cat No:—PB20.14) and primers specific for P2RX3 gene. Upon the completion of PCR, the data was analysed using the CFX manager software. The Fold change of the expression was calculated using the following formula: 2^−ddCT=2^−((CT target −CT internal control)

| Compound | AUC% Extrap—obs [1] | AUC(0-t) ([1]; in vivo) | Tmax ([1]; in vivo) | Cmax ([1]; in vivo, arithmetic mean) | AUC(0-inf) ([1]; in vivo, read-out: AUCinf—obs) | P2RX3 gene expression (fold change) (P2RX3 gene) |
| --- | --- | --- | --- | --- | --- | --- |
| NCC(=O)Nc1ccc(/N=N/c2ccccc2OC(=O)N2CCOCC2)c(N)n1 [Compound No. 446] | 11.73% | 151 ng·h/mL | 15 min | 145 ng/mL | 170 ng·h/mL |  |
| Nc1nc(N)c(/N=N/c2ccccc2)cc1O [Compound IX] |  |  |  |  |  | reduction in P2RX3 gene expression |
